These results are taken from patent publication US8283353B2, “Fused ring compound and use thereof” (Takeda Pharmaceutical Company Limited, priority 2009, dated 2012).

The structures appear in SMILES notation.

One test concerns the target T1, human PPARγ (Homo sapiens, UniProt P37231).
T1 construct: expressed in transfected cells
T1 sequence (P37231 1-477 isoform P37231-2): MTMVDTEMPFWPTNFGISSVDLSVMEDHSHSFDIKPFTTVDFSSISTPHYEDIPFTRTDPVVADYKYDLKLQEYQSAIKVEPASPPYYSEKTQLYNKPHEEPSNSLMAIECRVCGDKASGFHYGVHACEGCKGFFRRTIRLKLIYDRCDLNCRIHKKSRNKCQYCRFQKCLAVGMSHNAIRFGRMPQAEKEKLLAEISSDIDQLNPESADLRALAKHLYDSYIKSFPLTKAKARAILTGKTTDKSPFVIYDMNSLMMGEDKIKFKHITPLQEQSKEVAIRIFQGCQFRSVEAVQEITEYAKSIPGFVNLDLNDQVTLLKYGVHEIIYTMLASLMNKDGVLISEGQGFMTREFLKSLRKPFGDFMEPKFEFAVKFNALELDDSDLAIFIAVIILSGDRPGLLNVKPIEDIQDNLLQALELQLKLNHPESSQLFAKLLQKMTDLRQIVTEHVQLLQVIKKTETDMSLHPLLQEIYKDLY
T1 sequence (P19793 1-462 partner): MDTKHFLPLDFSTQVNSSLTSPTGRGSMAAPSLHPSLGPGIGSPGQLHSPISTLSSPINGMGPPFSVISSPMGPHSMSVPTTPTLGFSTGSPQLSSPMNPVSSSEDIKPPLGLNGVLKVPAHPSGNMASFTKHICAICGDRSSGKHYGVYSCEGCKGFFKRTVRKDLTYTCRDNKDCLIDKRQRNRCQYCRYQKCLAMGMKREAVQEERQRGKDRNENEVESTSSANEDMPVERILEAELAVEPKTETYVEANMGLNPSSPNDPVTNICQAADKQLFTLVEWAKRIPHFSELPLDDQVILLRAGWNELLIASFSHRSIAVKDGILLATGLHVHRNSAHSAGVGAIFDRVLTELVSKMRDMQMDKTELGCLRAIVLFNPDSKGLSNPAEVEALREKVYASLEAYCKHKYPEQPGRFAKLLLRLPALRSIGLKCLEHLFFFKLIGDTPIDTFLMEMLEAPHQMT
Nature of the test: PPARγ agonistic activity: luciferase reporter assay in PPARγ:RXRα:4ERPP/CHO-K1 cells. Format: cell-based. The following applies: CHO-K1, test compound 10^−6 M; luciferase activity of control compound X (1 μM) = 100%, non-administration group = 0%. The text has this: A CHO-K1 cell cultured in a 150 cm^2 cell culture flask [manufactured by Corning Costar Corporation, USA] comprising Ham's F12 medium [manufactured by INVITROGEN, USA] supplemented with 10% fetal bovine serum [manufactured by INVITROGEN, USA] was taken off by treating with 0.5 g/L trypsin-0.2 g/L EDTA (ethylenediamine tetraacetate) [manufactured by Life Technologies, Inc., USA], and then the cell was washed with PBS (Phosphate-buffered saline) [manufactured by INVITROGEN, USA], centrifuged (1000 rpm, 5 minutes) and suspended in PBS. Subsequently, DNA was introduced into the cell under the conditions shown below using GENE PULSER [manufactured by Bio-Rad Laboratories, USA].
Namely, to a cuvette having a 0.4 cm gap were added 8×10^6 cells and 10 μg of plasmid pVgRXR2-hPPARγ obtained in the above-mentioned (4) and 10 μg of reporter plasmid pGL3-4ERPP-TK neo obtained in the above-mentioned (3), which was subjected to electroporation at the voltage of 0.25 kV under the capacitance of […] Subsequently, the cell was transferred into a F12 medium comprising 10% fetal bovine serum and cultured for 24 hours, and then the cell was taken off again and centrifuged. Then, the pellet was suspended in Ham's F12 medium comprising 10% fetal bovine serum supplemented with 500 μg/ml of Geneticin [manufactured by INVITROGEN, USA] and 250 μg/ml of Zeocin [manufactured by INVITROGEN, USA]. The obtained suspension was diluted to the density of 10^4 cells/ml and inoculated in a 96-well plate [manufactured by Corning Costar Corporation, USA], which was cultured in a CO2 gas incubator at 37° C., whereby obtaining a Geneticin- and Zeocin-resistant transformant.
Subsequently, after the transformed cell line thus obtained was cultured in a 24-well plate [manufactured by Corning Costar Corporation, USA], a cell line in which expression of the luciferase was induced, i.e., PPARγ:RXRα:4ERPP/CHO-K1 cell was selected by the addition of 10 μM pioglitazone hydrochloride.
PPARγ:RXRα:4ERPP/CHO-K1 cells obtained in the above-mentioned (5) were cultured in F12 medium [manufactured by INVITROGEN, USA] containing 10% fetal bovine serum [manufactured by MOREGATE, Australia], seeded in a 96 well half-area white plate [manufactured by Corning Coster Corporation, USA] at 5×10^3 cells/well, and cultured in a CO2 incubator at 37° C. overnight.
Then, the medium was removed from the 96 well half-area white plate, hamF12 medium containing 0.1% fatty acid-free bovine serum albumin (BSA) (45 μl) and a test compound (5 μl) were added, and the mixture was cultured in the CO2 incubator at 37° C. for 1 day. After removing the medium, Picagene 7.5 [manufactured by Dai Nippon Inki, Japan] (20 μl) diluted 2-fold with HBSS (HANKS' BALANCED SALT SOLUTION) [manufactured by BIO […], USA] was added, and the mixture was stirred. Using 1420 ARVO Multilabel Counter [manufactured by PerkinElmer, USA], luciferase activity was measured. The percentage (%) was calculated from the luciferase activity of the test compound when the luciferase activity of the control compound (compound X: 5-[3-(4-{[2-(2-furyl)-5-methyl-1,3-oxazol-4-yl]methoxy}-3-methoxyphenyl)propyl]-1,3-oxazolidine-2,4-dione) (1 μM) was taken as 100% and the luciferase activity of the test compound non-administration group was taken as 0%.
For orientation: Reporter assays use an easily measured gene product as a stand-in for the process of interest.

The target in another test is T2, human AT1 receptor (Homo sapiens, UniProt P30556).
T2 construct: expressed in transfected cells; membrane fraction
T2 sequence (P30556 1-359): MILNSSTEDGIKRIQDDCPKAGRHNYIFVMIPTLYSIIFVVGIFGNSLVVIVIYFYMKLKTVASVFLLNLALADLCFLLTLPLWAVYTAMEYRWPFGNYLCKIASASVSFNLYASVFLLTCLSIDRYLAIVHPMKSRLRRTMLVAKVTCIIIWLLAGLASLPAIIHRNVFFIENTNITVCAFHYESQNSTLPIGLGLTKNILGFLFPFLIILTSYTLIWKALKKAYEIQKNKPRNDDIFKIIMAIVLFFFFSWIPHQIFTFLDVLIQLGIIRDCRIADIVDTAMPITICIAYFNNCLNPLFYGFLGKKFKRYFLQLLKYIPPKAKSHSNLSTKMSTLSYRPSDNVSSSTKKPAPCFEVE
The test is described as follows: AT1 receptor antagonistic activity: [125I]-angiotensin II binding assay on human AT1 receptor-expressing CHO-K1 cellular membrane fraction. The following applies: 22.5 pM [125I]-angiotensin II, 1 hr room temperature. How it is done:
CHO-K1 cell (RIKEN, Japan) capable of stable expression of human AT1 receptor was cultured, recovered, suspended in homogenize buffer (10 mM NaHCO3 (pH 7.4), 5 mM EDTA, 1× Complete EDTA free) [manufactured by Roche, Switzerland], and homogenized. The homogenate was centrifuged at low-speed (900×g, 10 min, 4° C.), and the supernatant was recovered and ultracentrifuged (90,000×g, 1 hr, 4° C.). The supernatant was discarded, and the pellets were resuspended in suspension buffer (50 mM Tris (pH 7.4), 1 mM EDTA, 1× Complete EDTA free).
(9 μg) in the presence of AT1 membrane and test compound in 100 μl, (total reaction volume) of reaction buffer (50 mM Tris (pH 7.4), 10 mM MgCl2 supplemented or not supplemented with 0.3 mg/mL fatty acid-free bovine serum albumin [manufactured by Wako Pure Chemical Industries, Ltd., Japan]). The reaction mixture was incubated in 96 well polypropylene plate for 1 hr at room temperature, and the reaction was quenched by rapid filtration (96 well cell harvester) through a GF/C filter treated with wash buffer (50 mM Tris (pH 7.4)). Subsequently, the filter was washed 5 times with 0.3 mL of ice-cooled wash buffer. […] Total binding was measured in the presence of 1% DMSO and nonspecific binding was measured in the presence of […] Candesartan.

Broadly, the IC50 is the concentration that gives 50% inhibition. A low value points to higher potency. On human PPARγ, `CCCc1c(Cc2ccc(-c3ccccc3-c3noc(=O)[nH]3)cc2)c(=O)n(Cc2ccc(F)cc2)c2nc(C)nn12` [Example 5, 4-(4-fluorobenzyl)-2-methyl-6-{[2′-(5-oxo-4,5-dihydro-1,2,4-oxadiazol-3-yl)biphenyl-4-yl]methyl}-7-propyl[1,2,4]triazolo[1,5-a]pyrimidin-5(4H)-one] had an activation at 1 µM of 18%. The same molecule came in with an IC50 on human AT1 receptor of 1.7 nM.

Take `CCCc1c(Cc2ccc(-c3ccccc3-c3noc(=O)[nH]3)cc2)c(=O)n([C@H]2CC[C@H](OCCO)CC2)c2ncnn12` [Example 164, 4-[trans-4-(2-hydroxyethoxy)cyclohexyl]-6-{[2′-(5-oxo-4,5-dihydro-1,2,4-oxadiazol-3-yl)biphenyl-4-yl]methyl}-7-propyl[1,2,4]triazolo[1,5-a]pyrimidin-5(4H)-one]: the activation at 1 µM on human PPARγ was found to be 18%. On human AT1 receptor, this molecule came in with a concentration for half-maximal inhibition (IC50) of 1 nM. For `CCCc1c(Cc2ccc(-c3ccccc3-c3noc(=O)[nH]3)cc2)c(=O)n(CCC)c2ncnn12` [Example 29, 6-{[2′-(5-oxo-4,5-dihydro-1,2,4-oxadiazol-3-yl)biphenyl-4-yl]methyl}-4,7-dipropyl[1,2,4]triazolo[1,5-a]pyrimidin-5(4H)-one], in that order: 16% and 3 nM. The like results for `CCCc1c(Cc2ccc(-c3ccccc3-c3noc(=O)[nH]3)cc2)c(=O)n(Cc2ccc(C(C)=O)cc2)c2ncnn12` [Example 28, 4-(4-acetylbenzyl)-6-{[2′-(5-oxo-4,5-dihydro-1,2,4-oxadiazol-3-yl)biphenyl-4-yl]methyl}-7-propyl[1,2,4]triazolo[1,5-a]pyrimidin-5(4H)-one] were, in that order, 49% and 3 nM.

Consider `CCCc1c(Cc2ccc(-c3ccccc3-c3noc(=O)[nH]3)cc2)c(=O)n(C2CCN(Cc3ccccc3)CC2)c2ncnn12` [Example 373, 4-(1-benzylpiperidin-4-yl)-6-{[2′-(5-oxo-4,5-dihydro-1,2,4-oxadiazol-3-yl)biphenyl-4-yl]methyl}-7-propyl[1,2,4]triazolo[1,5-a]pyrimidin-5(4H)-one], for which the activation at 1 µM at human PPARγ is 16%. At human AT1 receptor, this molecule displayed an IC50 of 3.2 nM. The like results for `CCCc1c(Cc2ccc(-c3ccccc3-c3noc(=O)[nH]3)cc2)c(=O)n(CC2(C)CC2)c2nc(C)nn12` [Example 69, 2-methyl-4-[(1-methylcyclopropyl)methyl]-6-{[2′-(5-oxo-4,5-dihydro-1,2,4-oxadiazol-3-yl)biphenyl-4-yl]methyl}-7-propyl[1,2,4]triazolo[1,5-a]pyrimidin-5(4H)-one] were, in that order, 27% and 1.4 nM. For `CCCc1c(Cc2ccc(-c3ccccc3-c3noc(=O)[nH]3)cc2)c(=O)n(C2CCCOC2)c2ncnn12` (stereo not drawn) [Example 124, 6-{[2′-(5-oxo-4,5-dihydro-1,2,4-oxadiazol-3-yl)biphenyl-4-yl]methyl}-7-propyl-4-(tetrahydro-2H-pyran-3-yl)[1,2,4]triazolo[1,5-a]pyrimidin-5(4H)-one], in that order: 21% and 2.4 nM.

As to `CCCc1c(Cc2ccc(-c3ccccc3-c3noc(=O)[nH]3)cc2)c(=O)n([C@H]2CC[C@H](OCC(C)=O)CC2)c2ccnn12` [Example 420, 6-{[2′-(5-oxo-4,5-dihydro-1,2,4-oxadiazol-3-yl)biphenyl-4-yl]methyl}-4-[trans-4-(2-oxopropoxy)cyclohexyl]-7-propylpyrazolo[1,5-a]pyrimidin-5(4H)-one], at human PPARγ, the activation at 1 µM came out at 21%. Further, the IC50 on human AT1 receptor was 2.2 nM. For `CCCc1c(Cc2ccc(-c3ccccc3-c3noc(=O)[nH]3)cc2F)c(=O)n(C2CCOCC2)c2nc(C)nn12` [Example 108, 6-{[3-fluoro-2′-(5-oxo-4,5-dihydro-1,2,4-oxadiazol-3-yl)biphenyl-4-yl]methyl}-2-methyl-7-propyl-4-(tetrahydro-2H-pyran-4-yl)[1,2,4]triazolo[1,5-a]pyrimidin-5(4H)-one], in that order: 16% and 1.5 nM. The like results for `CCCc1c(Cc2ccc(-c3ccccc3-c3nnn[nH]3)cc2)c(=O)n(C2CCC3(CC2)OC(C)(C)C(C)(C)O3)c2ncnn12` [Example 181, 7-propyl-4-(2,2,3,3-tetramethyl-1,4-dioxaspiro[4.5]dec-8-yl)-6-{[2′-(1H-tetrazol-5-yl)biphenyl-4-yl]methyl}[1,2,4]triazolo[1,5-a]pyrimidin-5(4H)-one] were, in that order, 18% and 3.2 nM. On human AT1 receptor, `CCCCc1c(Cc2ccc(-c3ccccc3-c3noc(=O)[nH]3)cc2)c(=O)n(C2CCOC(C)C2)c2ncnn12` (stereo not drawn) [Example 160, 7-butyl-4-(2-methyltetrahydro-2H-pyran-4-yl)-6-{[2′-(5-oxo-4,5-dihydro-1,2,4-oxadiazol-3-yl)biphenyl-4-yl]methyl}[1,2,4]triazolo[1,5-a]pyrimidin-5(4H)-one] had an IC50 of 1.3 nM.
